In patent US20100267697A1, “ION CHANNEL MODULATORS” (Wyeth, priority 2006, published 2010):
Where a name gives a salt, the structure may show the parent alone. Read-outs that look alike come from different tables or passages of the source.

Assays:
Format in all cases: cell-based
[1] = target: Cav2.2 (UniProt Q02294); assay: Oocyte assay (Xenopus oocyte heterologous expression, current at fifth pulse P5); conditions: Xenopus oocytes; fifth pulse (P5) of 5 Hz train, holding potential −100 mV
Protocol: The assay was performed on various calcium channels (e.g., Cav2.2 subfamily) whereby the modulation of the calcium channel was measured for each tested compound.

[2] = target: T1, Cav2.2 (Homo sapiens, UniProt Q00975); assay: HEK assay (whole-cell patch clamp, transiently transfected HEK-293T/17 cells, pulses P1 and P5); conditions: holding potential −100 mV
T1 construct: expressed in transfected cells; host or cells: HEK-293T/17 (transient, FuGENE 6)
Outline: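 Whole-cell voltage clamp of HEK-293T/17 cells transiently transfected via FuGENE 6, then grown 24 h in 1% serum before recording. From −100 mV holding, trains of five 20–30 ms steps to about +10 mV at 5 Hz, repeated every 30 s; steady-state IC50s taken at first (P1) and fifth (P5) pulses to gauge use-dependent block.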

[3] = target: T2, human Cav2.2 (composed of the subunits α1, β3 and α2δ) (Homo sapiens, UniProt Q00975); assay: FLIPR assay (TSA201 cells stably transfected with human Cav2.2 and human Kir2.3, FLUO-4 Ca2+ signal, KCl depolarization); conditions: 70 mM KCl depolarization, average value
T2 construct: expressed in transfected cells
Outline: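 TSA201 cells co-expressing Cav2.2 (α1, β3, α2δ) and Kir2.3 were loaded with FLUO-4 for 1 h at room temperature. Compound in HBSS with 1% DMSO was preincubated 15 min, then cells were depolarized with 70 mM final KCl (with CaCl2 and HEPES) and the Ca2+ fluorescence was read on FLIPR.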

[4] = fifth pulse (P5) of 5 Hz train, read-out: HEK Cav2.2 P5 IC50
[5] = first pulse (P1) of 5 Hz train, read-out: HEK Cav2.2 P1 IC50

T1 sequence (Q00975 whole entry): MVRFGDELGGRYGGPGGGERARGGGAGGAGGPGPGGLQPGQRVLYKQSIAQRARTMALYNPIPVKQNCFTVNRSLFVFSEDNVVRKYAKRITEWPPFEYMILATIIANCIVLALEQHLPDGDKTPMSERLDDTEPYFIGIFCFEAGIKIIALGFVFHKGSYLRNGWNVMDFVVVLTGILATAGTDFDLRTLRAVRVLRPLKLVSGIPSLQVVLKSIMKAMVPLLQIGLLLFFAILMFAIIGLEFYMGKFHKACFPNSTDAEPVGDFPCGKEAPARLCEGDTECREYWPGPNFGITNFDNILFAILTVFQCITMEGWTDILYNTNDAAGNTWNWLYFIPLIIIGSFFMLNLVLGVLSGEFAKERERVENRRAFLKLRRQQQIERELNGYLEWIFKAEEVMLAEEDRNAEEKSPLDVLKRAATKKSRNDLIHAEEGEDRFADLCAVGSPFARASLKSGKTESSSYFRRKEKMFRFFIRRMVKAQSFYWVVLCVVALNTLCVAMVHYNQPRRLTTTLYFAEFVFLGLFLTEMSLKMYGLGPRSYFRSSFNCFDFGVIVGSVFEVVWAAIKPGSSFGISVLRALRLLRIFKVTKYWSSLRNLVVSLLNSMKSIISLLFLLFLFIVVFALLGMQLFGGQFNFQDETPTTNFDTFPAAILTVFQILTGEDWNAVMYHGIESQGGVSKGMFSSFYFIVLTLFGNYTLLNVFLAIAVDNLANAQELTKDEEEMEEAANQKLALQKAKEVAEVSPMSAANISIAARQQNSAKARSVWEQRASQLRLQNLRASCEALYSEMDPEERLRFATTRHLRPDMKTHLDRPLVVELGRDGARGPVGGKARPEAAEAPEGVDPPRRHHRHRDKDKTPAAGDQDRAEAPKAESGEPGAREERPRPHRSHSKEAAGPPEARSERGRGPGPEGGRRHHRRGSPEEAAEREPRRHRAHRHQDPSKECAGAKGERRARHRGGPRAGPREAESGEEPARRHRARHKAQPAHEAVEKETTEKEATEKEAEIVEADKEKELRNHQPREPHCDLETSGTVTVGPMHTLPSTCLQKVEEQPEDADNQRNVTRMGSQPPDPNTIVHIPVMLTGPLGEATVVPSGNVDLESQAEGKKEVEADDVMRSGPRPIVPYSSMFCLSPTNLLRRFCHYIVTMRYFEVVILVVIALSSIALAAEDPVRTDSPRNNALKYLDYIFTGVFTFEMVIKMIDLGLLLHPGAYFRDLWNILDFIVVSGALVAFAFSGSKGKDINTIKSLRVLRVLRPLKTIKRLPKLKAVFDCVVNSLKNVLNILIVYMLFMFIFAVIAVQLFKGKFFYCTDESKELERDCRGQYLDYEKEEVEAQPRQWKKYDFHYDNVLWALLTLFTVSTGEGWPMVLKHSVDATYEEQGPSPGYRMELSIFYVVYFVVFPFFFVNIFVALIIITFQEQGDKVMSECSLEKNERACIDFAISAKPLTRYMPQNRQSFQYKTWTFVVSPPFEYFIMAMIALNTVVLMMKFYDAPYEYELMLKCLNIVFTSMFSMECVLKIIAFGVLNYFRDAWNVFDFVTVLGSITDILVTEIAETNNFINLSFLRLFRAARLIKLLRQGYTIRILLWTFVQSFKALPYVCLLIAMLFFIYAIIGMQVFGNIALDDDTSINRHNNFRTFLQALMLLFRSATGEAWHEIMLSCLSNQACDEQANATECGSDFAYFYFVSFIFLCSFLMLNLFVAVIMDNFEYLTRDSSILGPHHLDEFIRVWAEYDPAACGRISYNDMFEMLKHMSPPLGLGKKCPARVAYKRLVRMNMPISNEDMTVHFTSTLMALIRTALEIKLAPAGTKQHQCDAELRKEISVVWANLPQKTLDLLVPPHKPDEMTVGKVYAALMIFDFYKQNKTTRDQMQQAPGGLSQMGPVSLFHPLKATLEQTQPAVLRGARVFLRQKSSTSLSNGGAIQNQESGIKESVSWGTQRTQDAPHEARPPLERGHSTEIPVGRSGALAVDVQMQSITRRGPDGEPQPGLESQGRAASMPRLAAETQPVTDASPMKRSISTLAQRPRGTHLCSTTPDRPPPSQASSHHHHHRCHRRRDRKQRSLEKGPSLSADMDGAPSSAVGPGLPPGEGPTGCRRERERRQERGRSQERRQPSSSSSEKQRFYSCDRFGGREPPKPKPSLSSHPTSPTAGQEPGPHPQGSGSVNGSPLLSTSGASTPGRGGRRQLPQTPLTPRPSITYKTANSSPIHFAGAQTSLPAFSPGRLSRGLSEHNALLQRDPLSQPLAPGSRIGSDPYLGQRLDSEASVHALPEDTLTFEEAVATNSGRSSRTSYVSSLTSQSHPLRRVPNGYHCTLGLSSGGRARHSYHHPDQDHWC
T1 sequence (P54284 whole entry partner): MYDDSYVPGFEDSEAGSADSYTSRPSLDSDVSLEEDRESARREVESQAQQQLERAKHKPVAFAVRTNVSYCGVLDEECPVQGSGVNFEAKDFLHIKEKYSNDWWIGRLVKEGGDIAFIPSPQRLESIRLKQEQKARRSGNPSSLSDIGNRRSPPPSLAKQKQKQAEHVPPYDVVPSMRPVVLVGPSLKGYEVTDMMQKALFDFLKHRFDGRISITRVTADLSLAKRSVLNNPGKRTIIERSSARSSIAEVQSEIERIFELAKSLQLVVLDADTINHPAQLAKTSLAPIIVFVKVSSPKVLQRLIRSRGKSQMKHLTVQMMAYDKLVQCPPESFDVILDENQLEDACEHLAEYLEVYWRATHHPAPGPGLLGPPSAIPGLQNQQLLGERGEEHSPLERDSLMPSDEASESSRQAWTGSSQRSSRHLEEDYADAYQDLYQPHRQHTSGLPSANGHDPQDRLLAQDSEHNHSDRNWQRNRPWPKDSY
T1 sequence (P54289 25-946 partner limits assumed): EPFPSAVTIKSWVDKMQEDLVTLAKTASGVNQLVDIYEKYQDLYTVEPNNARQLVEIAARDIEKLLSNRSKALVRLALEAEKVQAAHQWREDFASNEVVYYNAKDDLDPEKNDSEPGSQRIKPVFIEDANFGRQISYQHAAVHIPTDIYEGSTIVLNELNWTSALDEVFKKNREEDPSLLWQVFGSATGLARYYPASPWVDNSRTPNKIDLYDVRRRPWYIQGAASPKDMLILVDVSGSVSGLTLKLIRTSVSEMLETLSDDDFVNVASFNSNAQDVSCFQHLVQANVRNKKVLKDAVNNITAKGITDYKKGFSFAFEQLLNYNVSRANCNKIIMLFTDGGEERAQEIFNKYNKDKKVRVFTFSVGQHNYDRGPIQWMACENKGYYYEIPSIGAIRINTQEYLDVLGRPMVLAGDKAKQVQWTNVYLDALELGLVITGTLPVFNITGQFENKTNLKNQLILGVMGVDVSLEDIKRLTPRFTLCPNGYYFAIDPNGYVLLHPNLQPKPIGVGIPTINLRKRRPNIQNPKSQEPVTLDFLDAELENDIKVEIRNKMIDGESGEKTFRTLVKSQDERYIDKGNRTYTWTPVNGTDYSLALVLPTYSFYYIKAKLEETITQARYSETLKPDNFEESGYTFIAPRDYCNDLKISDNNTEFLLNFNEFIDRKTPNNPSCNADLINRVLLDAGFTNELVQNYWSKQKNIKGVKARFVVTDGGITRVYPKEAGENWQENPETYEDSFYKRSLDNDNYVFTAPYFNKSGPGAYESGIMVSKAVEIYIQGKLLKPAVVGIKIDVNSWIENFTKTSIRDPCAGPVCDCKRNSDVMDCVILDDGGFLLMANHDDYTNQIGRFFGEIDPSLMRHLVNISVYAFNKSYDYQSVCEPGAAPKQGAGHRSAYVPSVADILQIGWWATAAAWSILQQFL
T1 sequence (P54289 947-1103 partner limits assumed): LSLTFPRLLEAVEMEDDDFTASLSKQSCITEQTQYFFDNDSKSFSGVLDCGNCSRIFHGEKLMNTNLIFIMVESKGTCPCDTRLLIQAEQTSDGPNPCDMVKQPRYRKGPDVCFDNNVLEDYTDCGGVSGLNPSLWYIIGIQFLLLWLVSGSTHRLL
T2 sequence (Q00975 whole entry): as the sequence (Q00975 whole entry) above
T2 sequence (P54284 whole entry partner): as the sequence (P54284 whole entry partner) above
T2 sequence (P54289 25-946 partner limits assumed): as the sequence (P54289 25-946 partner limits assumed) above
T2 sequence (P54289 947-1103 partner limits assumed): as the sequence (P54289 947-1103 partner limits assumed) above

Structure (SMILES) | IC50 [1] [µM] | IC50 [2, 4] [µM] | IC50 [2, 5] [µM] | IC50 [3] [µM]
CC(C)(C)C(=O)N(Cc1csc(N2CCCCC2)n1)c1ccc(F)cc1 [Compound 2, N-(4-fluorophenyl)-2,2-dimethyl-N-(2-piperidin-1-yl-thiazol-4-ylmethyl)-propionamide hydrochloride] | 16.9 | 2 | 16.8 | 
CCN(CC)c1ccc(CN(C(=O)C(C)(C)C)c2ccc(F)cc2)cn1 [Compound 3, N-(6-diethylamino-pyridin-3-ylmethyl)-N-(4-fluorophenyl)-2,2-dimethyl-propionamide trifluoroacetate] | 12.1 | 1.3 | 4.3 | 
CCN(c1ccc(CN(C(=O)C(C)(C)C)c2ccc(F)cc2)cn1)C1CC1 [Compound 7, N-(6-(Cyclopropyl(ethyl)amino)-pyridin-3-ylmethyl)-N-(4-fluorophenyl)-2,2-dimethyl-propionamide] | 8 | 1.7 | 12.9 | 
CC(C)(C)C(=O)N(Cc1cnc(N2CCCCC2)nc1)c1ccc(F)cc1 [Compound 8, N-(4-fluorophenyl)-2,2-dimethyl-N-(2-piperidin-1-yl-pyrimidin-5-ylmethyl)-propionamide hydrochloride] | 8.7 | 1.6 | 5.1 | 
CN1CCN(c2ccc(CN(C(=O)NC(C)(C)C)c3ccc(F)cc3)cn2)CC1 [Compound 11, 3-tert-butyl-1-(4-fluorophenyl)-1-(6-(4-methyl-piperazin-1-yl)-pyridin-3-ylmethyl)-urea hydrochloride] | 44 |  |  | 
CN1CCN(c2ccc(CN(C(=O)C3CCCO3)c3ccc(F)cc3)cn2)CC1 (centres unmarked) [Compound 16, TETRAHYDRO-FURAN-2-CARBOXYLIC ACID (4-FLUOROPHENYL)-(6-(4-METHYL-PIPERAZIN-1-YL)-PYRIDIN-3-YLMETHYL)-AMIDE TRIFLUOROACETATE] | 86 |  |  | 
CN1CCN(c2ccc(CN(C(=O)C(C)(C)C)c3ccc(F)cc3)cn2)CC1 [Compound 17, N-(4-Fluorophenyl)-N-[6-(4-methyl-piperazin-1-yl)-pyridin-3-ylmethyl)-2,2-dimethyl-propionamide] | 41.9 |  |  | 
CN(CCc1ccccn1)c1ccc(CN(C(=O)C(C)(C)C)c2ccc(F)cc2)cn1 [Compound 18, N-(4-Fluorophenyl)-2,2-dimethyl-N-{6-[methyl-(2-pyridin-2-yl-ethyl)-amino]-pyridin-3-ylmethyl}-propionamide] | 7.1 | 1.7 | 4 | 
CN(CCN1CCOCC1)c1ccc(CN(C(=O)C(C)(C)C)c2ccc(F)cc2)cn1 [Compound 20, N-(4-Fluorophenyl)-2,2-dimethyl-N-{6-[methyl-(2-morpholin-4-yl-ethyl)-amino]-pyridin-3-ylmethyl}-propionamide] | 35.5 | 5.2 | 22.2 | 
Cc1cc(F)ccc1N(Cc1ccc(N2CCN(C)CC2)nc1)C(=O)C(C)(C)C [Compound 21, N-(4-Fluoro-2-methyl-phenyl)-2,2-dimethyl-N-[6-(4-methyl-piperazin-1-yl)-pyridin-3-ylmethyl]-propionamide] | 18 | 2.7 | 10.5 | 
CN1CCCN(c2ccc(CN(C(=O)C(C)(C)C)c3ccc(F)cc3)cn2)CC1 [Compound 22, N-(4-Fluorophenyl)-2,2-dimethyl-N-[6-(4-methyl-[1,4]diazepan-1-yl)-pyridin-3-ylmethyl]-propionamide] | 18.3 | 5.7 | 27.8 | 
CCC(C)(C)C(=O)N(Cc1ccc(N(C)CCc2ccccn2)nc1)c1ccc(F)cc1 [Compound 24, N-(4-Fluorophenyl)-2,2-dimethyl-N-{6-[methyl-(2-pyridin-2-yl-ethyl)-amino]-pyridin-3-ylmethyl}-butyramide] | 3.8 | 0.6 | 2.9 | 
CC(C)(C)C(=O)N(Cc1ccc(N2CCN(c3ccccn3)CC2)nc1)c1ccc(F)cc1 [Compound 25, N-(4-Fluorophenyl)-2,2-dimethyl-N-[6-(4-pyridin-2-yl-piperazin-1-yl)-pyridin-3-ylmethyl]-propionamide] | 4.2 | 0.3 | 2.4 | 
CCC(C)(C)C(=O)N(Cc1ccc(N2CCN(c3ccccn3)CC2)nc1)c1ccc(F)cc1 [Compound 26, N-(4-Fluorophenyl)-2,2-dimethyl-N-[6-(4-pyridin-2-yl-piperazin-1-yl)-pyridin-3-ylmethyl]-butyamide] | 12.2 | 0.4 | 1.7 | 
CN(CCc1cccnc1)c1ccc(CN(C(=O)C(C)(C)C)c2ccc(F)cc2)cn1 [Compound 27, N-(4-Fluorophenyl)-2,2-dimethyl-N-{6-[methyl-(2-pyridin-3-yl-ethyl)-amino]-pyridin-3-ylmethyl}-propionamide] | 5.2 | 1.1 | 4.6 | 
CN(CCOc1ccccn1)c1ccc(CN(C(=O)C(C)(C)C)c2ccc(F)cc2)cn1 [Compound 29, N-(4-Fluorophenyl)-2,2-dimethyl-N-(6-{methyl-[2-(pyridin-2-yloxy)-ethyl]-amino}-pyridin-3-ylmethyl)-propanamide] | 8.7 | 1 | 5.2 | 
CN1CCN(c2ccc(CN(C(=O)C3CC3)c3ccc(F)cc3)cn2)CC1 [Compound 103, Cyclopropanecarboxylic acid (4-fluorophenyl)-[6-(4-methyl-piperaizn-1-yl)-pyridin-3-ylmethyl]-amide] | 129 |  |  | 
CCN(CC)c1ccc(CN(C(=O)C2CCOC2)c2ccc(F)cc2)cn1 (centres unmarked) [Compound 112, Tetrahydro-furan-3-carboxylic acid (6-diethylamino-pyridin-3-ylmethyl)-(4-fluorophenyl)-amide] | 37 |  |  | 
CCN(CC)c1ccc(CN(C(=O)C2CCOCC2)c2ccc(F)cc2)cn1 [Compound 113, Tetrahydro-pyran-4-carboxylic acid (6-diethylamino-pyridin-3-ylmethyl)-(4-fluorophenyl)-amide] | 30 |  |  | 
CC(C)(C)C(=O)N(Cc1csc(-c2ccccc2F)n1)c1ccc(F)cc1 [Compound 249, N-(4-fluorophenyl)-N-{[2-(2-fluorophenyl)-1,3-thiazol-4-yl]methyl}-2,2-dimethylpropanamide] |  |  |  | 7.9
CN1CCN(c2ccc(CN(C(=O)C3CCCO3)c3ccc(F)cc3)cn2)CC1 (centres unmarked) [Compound 250, N-(4-fluorophenyl)-N-{[6-(4-methylpiperazin-1-yl)pyridin-3-yl]methyl}tetrahydrofuran-2-carboxamide] |  |  |  | 34.4
O=C(C1CCCO1)N(Cc1ccc(Cl)nc1)c1ccc(F)cc1 (centres unmarked) [Compound 252, N-[(6-chloropyridin-3-yl)methyl]-N-(4-fluuorophenyl)tetrahydrofuran-2-carboxamide] |  |  |  | 13.4
CC(C)(C)OC(=O)N1CC[C@H](C(=O)N(Cc2ccc(Cl)nc2)c2ccc(F)cc2)C1 [Compound 254, TERT-BUTYL (3S)-3-{[(6-CHLOROPYRIDIN-3-YL)METHYL](4-FLUOROPHENYL)CARBAMOYL}PYRROLIDINE-1-CARBOXYLATE] |  |  |  | 2.9
CC(C)(C)OC(=O)N1CC[C@@H](C(=O)N(Cc2ccc(Cl)nc2)c2ccc(F)cc2)C1 [Compound 255, tert-butyl (3R)-3-{[(6-chloropyridin-3-yl)methyl](4-fluorophenyl)carbamoyl}pyrrolidine-1-carboxylate] |  |  |  | 2.8
CN1CCN(c2ccc(CN(C(=O)[C@H]3CCN(C(=O)OC(C)(C)C)C3)c3ccc(F)cc3)cn2)CC1 [Compound 256, tert-butyl (3S)-3-[(4-fluorophenyl){[6-(4-methylpiperazin-1-yl)pyridin-3-yl]methyl}carbamoyl]pyrrolidine-1-carboxylate] |  |  |  | 12.6
CN1CCN(c2ccc(CN(C(=O)[C@@H]3CCN(C(=O)OC(C)(C)C)C3)c3ccc(F)cc3)cn2)CC1 [Compound 257, tert-butyl (3R)-3-[(4-fluorophenyl){[6-(4-methylpiperazin-1-yl)pyridin-3-yl]methyl}carbamoyl]pyrrolidine-1-carboxylate] |  |  |  | 22.9
CN1CCN(c2ccc(CN(C(=O)[C@H]3CCNC3)c3ccc(F)cc3)cn2)CC1 [Compound 258, (3S)-N-(4-fluorophenyl)-N-{[6-(4-methylpiperazin-1-yl)pyridin-3-yl]methyl}pyrrolidine-3-carboxamide] |  |  |  | 57.7
CN1CCN(c2ccc(CN(C(=O)[C@@H]3CCNC3)c3ccc(F)cc3)cn2)CC1 [Compound 259, (3R)-N-(4-fluorophenyl)-N-{[6-(4-methylpiperazin-1-yl)pyridin-3-yl]methyl}pyrrolidine-3-carboxamide] |  |  |  | 59.5
CN1CCN(c2ccc(CN(C(=O)[C@H]3CCN(C(=O)C(C)(C)C)C3)c3ccc(F)cc3)cn2)CC1 [Compound 260, (3S)-1-(2,2-dimethylpropanoyl)-N-(4-fluorophenyl)-N-{[6-(4-methylpiperazin-1-yl)pyridin-3-yl]methyl}pyrrolidine-3-carboxamide] |  |  |  | 47.3
CN1CCN(c2ccc(CN(C(=O)[C@@H]3CCN(C(=O)C(C)(C)C)C3)c3ccc(F)cc3)cn2)CC1 [Compound 261, (3R)-1-(2,2-dimethylpropanoyl)-N-(4-fluorophenyl)-N-{[6-(4-methylpiperazin-1-yl)pyridin-3-yl]methyl}pyrrolidine-3-carboxamide] |  |  |  | 55.6
